Test [1] has as its system Mycobacterium tuberculosis. The test is described as follows: Antimycobacterial activity against Mycobacterium tuberculosis assessed as growth inhibition incubated for 7 days by microplate alamar blue bioassay. As to conditions: 168 h, time 7 day. It is filed as functional.
For test [2], the system named is Mycolicibacterium smegmatis. Put plainly: Antimycobacterial activity against Mycobacterium smegmatis assessed as growth inhibition incubated for 7 days by microplate alamar blue bioassay. The following applies: 168 h, time 7 day. It is filed as functional.

Each structure is given as a SMILES string. In brackets after ≈: the same amount, converted by molar mass.

`O=C(/C=C/C=C/c1ccc2c(c1)OCO2)N1CCCCC1` [PIPERINE]: the minimal inhibitory concentration (MIC) came to 2.62 µg/mL (≈ 9.18 µM) in test [1] and 1.74 µg/mL (≈ 6.1 µM) in test [2].
